Experimental findings from US20240299597A1, “3-Iodopropyl-1,2,3-Triazol-1-yl, 3-Bromopropyl-1,2,3-Triazol-1-yl, and Derivatives for Uses in Labeling” (Emory University, priority 2021, published 2024) are described below.

The series is described as follows: Storage stability / shelf life of F-18 labeling precursors. The class given is physicochemical. The following applies: for stability to storage compared to the tosylate and 4-bromo-tosylate derivatives: comparison in the FIG. 1C legend; for stability on storage: stored below 0 C.

For the compound `CC(=O)OCC1OC(OC2C(COC(C)=O)OC(OC3C(COC(C)=O)OC(OCCCn4cc(CCCBr)nn4)C(OC(C)=O)C3OC(C)=O)C(OC(C)=O)C2OC(C)=O)C(OC(C)=O)C(OC(C)=O)C1OC(C)=O` (stereo not shown) [3-bromopropyl-precursor, 2-(acetoxymethyl)-6-((4,5-diacetoxy-2-(acetoxymethyl)-6-((4,5-diacetoxy-2-(acetoxymethyl)-6-(3-(4-(3-bromopropyl)-1H-1,2,3-triazol-1-yl)propoxy)tetrahydro-2H-pyran-3-yl)oxy)tetrahydro-2H-pyran-3-yl)oxy)tetrahydro-2H-pyran-3,4,5-triyl triacetate], the “stability to storage compared to the tosylate and 4-bromo-tosylate derivatives” value is listed as “more statable to storage”; the stability on storage entry is listed as “stable”.

As for `CC(=O)OCC1OC(OC2C(COC(C)=O)OC(OC3C(COC(C)=O)OC(OCCCn4cc(CCCI)nn4)C(OC(C)=O)C3OC(C)=O)C(OC(C)=O)C2OC(C)=O)C(OC(C)=O)C(OC(C)=O)C1OC(C)=O` (stereo not shown) [3-iodopropyl-precursor, 2-(acetoxymethyl)-6-((4,5-diacetoxy-2-(acetoxymethyl)-6-((4,5-diacetoxy-2-(acetoxymethyl)-6-(3-(4-(3-iodopropyl)-1H-1,2,3-triazol-1-yl)propoxy)tetrahydro-2H-pyran-3-yl)oxy)tetrahydro-2H-pyran-3-yl)oxy)tetrahydro-2H-pyran-3,4,5-triyl triacetate], the “stability to storage compared to the tosylate and 4-bromo-tosylate derivatives” value was “more statable to storage”; the stability on storage result is recorded as “stable”.
